Results published in EP0812825B1, “PROPENONE DERIVATIVES” (KYOWA HAKKO KOGYO CO., LTD., priority 1995, dated 1997).

Experiments:
[1] = tested on: HeLa S3 cells; experiment: HeLa S3 cell growth inhibition test (neutral red staining); assay type: cell-based; conditions: Homo sapiens; HeLa S3, 72 hours culture with compound
Experimental: Test Example 1: HeLa S3 Cell Growth Inhibition Test
Each 0.1 ml of HeLa S3 cells which had been prepared to 3 x 10^4 cells/ml using a medium consisting of MEM medium, 10% fetal bovine serum, and 2 mM glutamine was distributed in each well of 96 well-microtiter plate.
HeLa S3 was cultured at 37°C for one night in a CO2 incubator, each 0.05 ml of test compounds which had been appropriately diluted with the culture solution was added thereto, and the mixture was cultured at 37°C for 72 hours in a CO2 incubator. Supernatant was removed, each 0.1 ml of the culture solution containing 0.02% neutral red was added to the residue, the mixture was incubated at 37°C for one hour in a CO2 incubator, and the cells were stained. Supernatant was removed and the residue was washed once with physiological saline. Then, the pigment was extracted with 0.001 N hydrochloric acid/30% ethanol and the absorbance at 550 nm was measured by a microplatereader. A concentration of the test compound (IC50) at which the growth of cell is inhibited by 50% was calculated by comparing the absorbance of non-treated cells and that of cells treated with a predetermined concentration of the test compound.

[2] = tested on: T-Cell Proliferation; experiment: T-cell proliferation inhibitory test using mouse mixed lymphocyte reaction (MLR), [3H]-thymidine incorporation; assay type: cell-based; conditions: 72 hours
Experimental: Test Example 5: T-Cell Proliferation Inhibitory Test Using Mouse Mixed Lymphocyte Reaction (MLR)
Spleen was sterilly removed from C3H/He mouse and single cell suspension was prepared. This suspension was irradiated with 2000R X-ray and adjusted into 8 x 10^6 cells/ml. 50 µl of lymph-node cells of BALB/c mouse (containing 2 x 10^5 cells), 50 µl of X-ray irradiated spleen cell suspension of C3H/He mouse (containing 4 x 10^5 cells), and 50 µl of determined concentration of test compound solution were added in each well of 96 well microtiter plate and cultured at 37°C for 72 hours in the CO2 incubator. Eight hours before the end of culture, [^3H]-Thymidine (1.85 KBq) was added. At the end of culture, cells were trapped. on the filter paper by cell harvester and dried. Toluene type scintillator was added and radioactivity of [^3H]-Thymidine incorporated into cells was measured by liquid scintillation counter.
Suppression rate of T-cell proliferation was calculated according to the following equation. Suppression rate (%) =((Radioactivity in control group) - (Radioactivity in test group))/((Radioactivity in control group) - (Radioactivity in X-ray irradiated C3H/He+Radioactivity in Balb/c))× 100 [formula]

[3] = tested on: Delayed Type Hypersensitivity Footpad Reaction; experiment: Effect against delayed type hypersensitivity footpad reaction (TNBS-immunized mice); assay type: in vivo, BALB/c mice
Experimental: Male BALB/c mice (8-weeks-old, Charles River Japan Inc.) were immunized by intradermally injection in the dorsal flank of 100 µl of 10mM 2,4,6-trinitrobenzenesulfonic acid (TNBS) in saline. Five mice were used in each group, that is, control group [0.5% methylcellulose containing 10% dimethyl sulfoxide (DMSO)-administered group], Cyclosporine A (Sandoz)-administered group, and test compound-administered group wherein a determined concentration of test compound suspended in 0.5% methylcellulose containing 10% DMSO was administered. Each of Cyclosporine A and test compound was intraperitoneally administered 30 minutes before and once a day for 4 days after immunization. 50 µl of 10mM TNBS was intradermally injected as a challenging antigen 5 days after immunization when antigen-sensitization was developed. Thickness of both footpads of each animal in each dose of test compound-administered group was measured with a dial thickness gauge 18 hours after antigen challenge, and the value of the difference in thickness of left and right footpad (T) was determined. On the other hand, thickness of both footpads in control group was measured, and the value of the difference in thickness of left and right footpad (C) was determined. Suppression rate in footpad reaction was calculated as [(C - T)/C] x 100.

[4] = tested on: anti-Trinitrophenol (TNP) Antibody Production; experiment: Effect against anti-trinitrophenol (TNP) antibody production (serum ELISA); assay type: in vivo, BALB/c mice
Experimental: Mice which were used for the effect against delayed type hypersensitivity footpad reaction were bled, the sera were separated by centrifugation at 3000rpm at 4°C for 10 minutes, and then anti-TNP antibody titer was measured. For measuring anti-TNP antibody, enzyme-linked immunosorbent assay (ELISA) was used. […] Peroxidase labeled anti-mouse IgG+IgA+IgM (American Qualex International, Inc.) was added and bound to anti-TNP antibody in culture supernatant which was bound to plate. Orthophenylenediamine (Wako Pure Chemical Industries, Ltd) solution containing hydrogen peroxide (Wako Pure Chemical Industries, Ltd) was added and enzyme reaction was started. After sufficient coloring, coloring reaction was stopped by addition of 10% […] (Wako Pure Chemical Industries, Ltd) and absorbance at 490nm was measured by immunoreader (Intermed Japan, NJ-2000).
Suppression rate of anti-TNP antibody production by test compound was calculated according to the following equation.

[5] = dose 3.0 mg/kg x 5, intraperitoneally
[6] = dose 10 mg/kg x 5, intraperitoneally

| IC50 [1] [nM] | Structure (SMILES) | also measured |
| --- | --- | --- |
| 2.4 | CO/C(=C\c1c[nH]c2ccccc12)C(=O)c1cc(OC)c(OC)c(OC)c1 [Compound 1, (Z)-3-(Indol-3-yl)-2-methoxy-1-(3,4,5-trimethoxyphenyl)-2-propen-1-one] | – |
| 2.5 | CCO/C(=C\c1c[nH]c2ccccc12)C(=O)c1cc(OC)c(OC)c(OC)c1 [Compound 2, (Z)-2-Ethoxy-3-(indol-3-yl)-1-(3,4,5-trimethoxyphenyl)-2-propen-1-one] | – |
| 13 | CCCO/C(=C\c1c[nH]c2ccccc12)C(=O)c1cc(OC)c(OC)c(OC)c1 [Compound 3, (Z)-3-(Indol-3-yl)-2-propyloxy-1-(3,4,5-trimethoxyphenyl)-2-propen-1-one] | – |
| 3.7 | COc1cc(C(=O)/C(=C/c2c[nH]c3ccccc23)OC(C)C)cc(OC)c1OC [Compound 4, (Z)-2-Isopropyloxy-3-(indol-3-yl)-1-(3,4,5-trimethoxyphenyl)-2-propen-1-one] | – |
| 68 | COc1cc(C(=O)/C(=C/c2c[nH]c3ccccc23)Oc2ccccc2C)cc(OC)c1OC [Compound 7, (Z)-3-(Indol-3-yl)-2-(2-methylphenoxy)-1-(3,4,5-trimethoxyphenyl)-2-propen-1-one] | – |
| 62 | COc1cc(C(=O)/C(=C/c2c[nH]c3ccccc23)Oc2ccc(Br)cc2)cc(OC)c1OC [Compound 8, (Z)-2-(4-Bromophenoxy)-3-(indol-3-yl)-1-(3,4,5-trimethoxyphenyl)-2-propen-1-one] | – |
| 2.2 | COc1cc(C(=O)/C(=C/c2c[nH]c3ccccc23)SC)cc(OC)c1OC [Compound 9, (Z)-3-(Indol-3-yl)-2-methylthio-1-(3,4,5-trimethoxyphenyl)-2-propen-1-one] | – |
| 2.5 | COc1cc(C(=O)/C(=C/c2c[nH]c3cc(C)ccc23)SCCO)cc(OC)c1OC [Compound 13, (Z)-2-(2-Hydroxyethylthio)-3-(6-methylindol-3-yl)-1-(3,4,5-trimethoxyphenyl)-2-propen-1-one] | – |
| 4.7 | COC(=O)CS/C(=C\c1c[nH]c2ccccc12)C(=O)c1cc(OC)c(OC)c(OC)c1 [Compound 16, (Z)-3-(Indol-3-yl)-2-methoxycarbonylmethylthio-1-(3,4,5-trimethoxyphenyl)-2-propen-1-one] | – |
| 2.1 | COc1cc(C(=O)/C(=C/c2c[nH]c3ccccc23)CCC(O)CO)cc(OC)c1OC (stereo not drawn) [Compound 19, (E)-2-(3,4-Dihydroxybutyl)-3-(indol-3-yl)-1-(3,4,5-trimethoxyphenyl)-2-propen-1-one] | – |
| 5.6 | COc1cc(C(=O)/C(=C/c2c[nH]c3cc(C)ccc23)CCC(O)CO)cc(OC)c1OC (stereo not drawn) [Compound 20, (E)-2-(3,4-Dihydroxybutyl)-3-(6-methylindol-3-yl)-1-(3,4,5-trimethoxyphenyl)-2-propen-1-one] | – |
| 4.8 | COc1cc(C(=O)/C(=C/c2c[nH]c3ccccc23)SCC(O)CO)cc(OC)c1OC (stereo not drawn) [Compound 21, (Z)-2-(2,3-Dihydroxypropylthio)-3-(indol-3-yl)-1-(3,4,5-trimethoxyphenyl)-2-propen-1-one] | inhibition at 0.1 µM ([2]; concentration 10^-7 M, read-out: Suppression rate(%)): 107%; inhibition at 0.01 µM ([2]; concentration 10^-8 M, read-out: Suppression rate(%)): 106%; inhibition at 0.001 µM ([2]; concentration 10^-9 M, read-out: Suppression rate(%) (converted)): 7.8%; Suppression rate(%) [3, 5]: 8.5 (3.0) %; Suppression rate(%) [3, 6]: 69 (10) %; Suppression rate(%) [4, 5]: 15 (3.0) %; Suppression rate(%) [4, 6]: 57 (10) % |
| 20 | COc1cc(C(=O)/C(=C/c2cn(C)c3ccccc23)SCC(O)CO)cc(OC)c1OC (stereo not drawn) [Compound 22, (Z)-2-(2,3-Dihydroxypropylthio)-3-(1-methylindol-3-yl)-1-(3,4,5-trimethoxyphenyl)-2-propen-1-one] | – |
| 19 | COc1cc(C(=O)/C(=C/c2c[nH]c3cccc(C)c23)SCC(O)CO)cc(OC)c1OC (stereo not drawn) [Compound 23, (Z)-2-(2,3-Dihydroxypropylthio)-3-(4-methylindol-3-yl)-1-(3,4,5-trimethoxyphenyl)-2-propen-1-one] | – |
| 15 | COc1cc(C(=O)/C(=C/c2c[nH]c3cccc(Cl)c23)SCC(O)CO)cc(OC)c1OC (stereo not drawn) [Compound 24, (Z)-3-(4-Chloroindol-3-yl)-2-(2,3-dihydroxypropylthio)-1-(3,4,5-trimethoxyphenyl)-2-propen-1-one] | – |
| 6.3 | COc1cc(C(=O)/C(=C/c2c[nH]c3ccc(F)cc23)SCC(O)CO)cc(OC)c1OC (stereo not drawn) [Compound 27, (Z)-2-(2,3-Dihydroxypropylthio)-3-(5-fluoroindol-3-yl)-1-(3,4,5-trimethoxyphenyl)-2-propen-1-one] | – |
| 6.3 | COc1cc(C(=O)/C(=C/c2c[nH]c3cc(C)ccc23)SCC(O)CO)cc(OC)c1OC (stereo not drawn) [Compound 28, (Z)-2-(2,3-Dihydroxypropylthio)-3-(6-methylindol-3-yl)-1-(3,4,5-trimethoxyphenyl)-2-propen-1-one] | – |
| 18 | CCc1ccc2c(/C=C(\SCC(O)CO)C(=O)c3cc(OC)c(OC)c(OC)c3)c[nH]c2c1 (stereo not drawn) [Compound 29, (Z)-2-(2,3-Dihydroxypropylthio)-3-(6-ethylindol-3-yl)-1-(3,4,5-trimethoxyphenyl)-2-propen-1-one] | – |
| 7.2 | COc1cc(C(=O)/C(=C/c2c[nH]c3cc(Cl)ccc23)SCC(O)CO)cc(OC)c1OC (stereo not drawn) [Compound 31, (Z)-3-(6-Chloroindol-3-yl)-2-(2,3-dihydroxypropylthio)-1-(3,4,5-trimethoxyphenyl)-2-propen-1-one] | – |
| 5.9 | COc1cc(C(=O)/C(=C/c2c[nH]c3cc(F)ccc23)SCC(O)CO)cc(OC)c1OC (stereo not drawn) [Compound 32, (Z)-2-(2,3-Dihydroxypropylthio)-3-(6-fluoroindol-3-yl)-1-(3,4,5-trimethoxyphenyl)-2-propen-1-one] | – |
| 4.4 | COc1cc(C(=O)C(=Cc2c[nH]c3ccccc23)SCC(O)C(O)CO)cc(OC)c1OC [Compound 35, 3-(Indol-3-yl)-2-[(2S),(3R)-2,3,4-trihydroxybutylthio]-1-(3,4,5-trimethoxyphenyl)-2-propen-1-one] | – |
| 5.3 | COc1cc(C(=O)C(=Cc2c[nH]c3cc(C)ccc23)SC[C@@H](O)[C@H](O)CO)cc(OC)c1OC [Compound 36, 3-(6-Methylindol-3-yl)-2-[(2S),(3R)-2,3,4-trihydroxybutylthio]-1-(3,4,5-trimethoxyphenyl)-2-propen-1-one] | – |
| 7.1 | COc1cc(C(=O)C(=Cc2c[nH]c3cc(C)ccc23)SC[C@H](O)[C@@H](O)CO)cc(OC)c1OC [Compound 37, 3-(6-Methylindol-3-yl)-2-[(2R),(3S)-2,3,4-trihydroxybutylthio)-1-(3,4,5-trimethoxyphenyl)-2-propen-1-one] | – |
